Columns and labels:
Format in all cases: cell-based
KRAS G12V = target: T1, KRAS G12V (Homo sapiens, UniProt P01116, G12V); assay: KRAS G12V HiBit assay; details: SW620-KRAS (G12V)-HiBit-KI cells, compound treatment for 24 hours, class symbols
T1 construct: SW620-KRAS (G12V)-HiBit-KI cell (Pharmaron); host or cells: SW620-KRAS (G12V)-HiBit-KI cells (HiBiT knock-in at the endogenous KRAS locus)
Procedure, shortened: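 Luminescence from lytic Nano-Glo HiBiT detection with LgBiT read KRAS G12V levels after 24 h compound exposure. Dilutions were 10-point, 3-fold, from a 0.3 mM DMSO stock. Degradation activity was normalised to cells given 0.1% DMSO alone.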

KRAS G12D = target: T2, KRAS G12D (Homo sapiens, UniProt P01116, G12D); assay: KRAS G12D HiBit assay; details: AsPc-1-KRAS (G12D)-HiBit-KI cell, compound treatment for 24 hours, absolute DC50
T2 construct: AsPc-1-KRAS (G12D)-HiBit-KI cell (Pharmaron); host or cells: AsPc-1-KRAS (G12D)-HiBit-KI cells (HiBiT knock-in at the endogenous KRAS locus)
T2 sequence (P01116 1-188 isoform P01116-2 G12D): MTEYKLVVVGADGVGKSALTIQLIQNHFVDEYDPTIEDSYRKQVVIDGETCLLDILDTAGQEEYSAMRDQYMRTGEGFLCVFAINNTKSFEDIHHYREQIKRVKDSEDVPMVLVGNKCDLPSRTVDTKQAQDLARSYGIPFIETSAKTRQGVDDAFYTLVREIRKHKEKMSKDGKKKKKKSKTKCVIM
Procedure, shortened: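 HiBiT luminescence, detected by adding lytic buffer, substrate and LgBiT protein, served as the KRAS G12D read-out. Compounds, serially diluted 3-fold over 10 points from 0.3 mM DMSO stock, were on cells for 24 h; percent inhibition normalized to cells given 0.1% DMSO only.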

KRAS = target: T3, KRAS (Homo sapiens, UniProt P01116); assay: KRASamp MSD assay; details: KE39 (KRAS amplified) cells, treated with test compounds for 24 hr, MSD readout of KRAS degradation
T3 construct: endogenous in cells; host or cells: KE39 (KRAS amplified) cells
T3 sequence (P01116 1-188 isoform P01116-2): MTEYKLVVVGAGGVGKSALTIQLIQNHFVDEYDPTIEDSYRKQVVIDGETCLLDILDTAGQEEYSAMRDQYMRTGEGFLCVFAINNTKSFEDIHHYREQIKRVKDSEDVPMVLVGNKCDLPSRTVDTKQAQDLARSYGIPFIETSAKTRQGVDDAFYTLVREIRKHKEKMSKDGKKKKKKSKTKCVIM
Procedure, shortened: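 Degradation DC50 derived by curve fitting, with KRAS levels quantified by MSD electrochemiluminescence (capture/detection antibodies, recombinant WT KRAS standard). Lysates prepared from KE39 cells (KRAS amplified) exposed to test compounds for 24 hr.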

[1] = numeric bounds given in place of class symbols

T1 sequence (P01116 1-188 isoform P01116-2 G12V): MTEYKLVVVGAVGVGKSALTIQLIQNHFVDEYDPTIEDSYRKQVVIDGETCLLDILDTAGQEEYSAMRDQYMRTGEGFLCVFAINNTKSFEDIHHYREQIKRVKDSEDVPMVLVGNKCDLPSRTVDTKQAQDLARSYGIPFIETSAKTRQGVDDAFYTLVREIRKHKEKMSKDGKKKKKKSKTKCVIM

| SMILES | DC50 (KRAS G12V) [nM] | DC50 (KRAS G12D; class symbols) [nM] | DC50 (KRAS) [nM] | DC50 (KRAS G12D; [1]) [nM] |
| --- | --- | --- | --- | --- |
| CCc1c(F)ccc2cc(O)cc(-c3ncc4c(N5CCC[C@](C)(O)C5)nc(OC[C@]56CCCN5[C@@H](COC(=O)N5CC7CCC(C5)C7CN5CCC(c7ccc8c(c7)n(C)c(=O)n8C7CCC(=O)NC7=O)CC5)CC6)nc4c3F)c12 (stereo partly drawn) [Compound 391, ((3R,7aR)-7a-(((7-(8-ethyl-7-fluoro-3-hydroxynaphthalen-1-yl)-8-fluoro-4-((S)-3-hydroxy-3-methylpiperidin-1-yl)pyrido[4,3-d]pyrimidin-2-yl)oxy)methyl)hexahydro-1H-pyrrolizin-3-yl)methyl 8-((4-(1-(2,6-dioxopiperidin-3-yl)-3-methyl-2-oxo-2,3-dihydro-1H-benzo[d]imidazol-5-yl)piperidin-1-yl)methyl)-3-azabicyclo[3.2.1]octane-3-carboxylate] | < 10 | < 100 | < 1 | – |
| CCc1c(F)ccc2cc(O)cc(-c3ncc4c(N5CCC[C@@](C)(O)C5)nc(OC[C@@]56CCCN5[C@H](COC(=O)N5C7CCC5CC(CN5CCC(c8ccc9c(c8)n(C)c(=O)n9C8CCC(=O)NC8=O)CC5)C7)CC6)nc4c3F)c12 (stereo partly drawn) [Compound 392, ((3S,7aS)-7a-(((7-(8-ethyl-7-fluoro-3-hydroxynaphthalen-1-yl)-8-fluoro-4-((R)-3-hydroxy-3-methylpiperidin-1-yl)pyrido[4,3-d]pyrimidin-2-yl)oxy)methyl)hexahydro-1H-pyrrolizin-3-yl)methyl 3-((4-(1-(2,6-dioxopiperidin-3-yl)-3-methyl-2-oxo-2,3-dihydro-1H-benzo[d]imidazol-5-yl)piperidin-1-yl)methyl)-8-azabicyclo[3.2.1]octane-8-carboxylate] | < 10 | < 100 | < 1 | – |
| CCc1c(F)ccc2cc(O)cc(-c3ncc4c(N5CCC[C@@](C)(O)C5)nc(OC[C@@]56CCCN5[C@H](COC(=O)N5CC(CN7CCC(c8ccc9c(c8)n(C)c(=O)n9C8CCC(=O)NC8=O)CC7)C5)CC6)nc4c3F)c12 (stereo partly drawn) [Compound 394, ((3S,7aS)-7a-(((7-(8-ethyl-7-fluoro-3-hydroxynaphthalen-1-yl)-8-fluoro-4-((R)-3-hydroxy-3-methylpiperidin-1-yl)pyrido[4,3-d]pyrimidin-2-yl)oxy)methyl)hexahydro-1H-pyrrolizin-3-yl)methyl 3-((4-(1-(2,6-dioxopiperidin-3-yl)-3-methyl-2-oxo-2,3-dihydro-1H-benzo[d]imidazol-5-yl)piperidin-1-yl)methyl)azetidine-1-carboxylate] | < 10 | – | 1 to 10 | > 100 |
| CCc1c(F)ccc2cc(O)cc(-c3ncc4c(N5CCC[C@@](C)(O)C5)nc(OC[C@@]56CCCN5[C@H](COC(=O)N5CC7(CC(CN8CCC(c9ccc%10c(c9)n(C)c(=O)n%10C9CCC(=O)NC9=O)CC8)C7)C5)CC6)nc4c3F)c12 (stereo partly drawn) [Compound 396, ((3S,7aS)-7a-(((7-(8-ethyl-7-fluoro-3-hydroxynaphthalen-1-yl)-8-fluoro-4-((R)-3-hydroxy-3-methylpiperidin-1-yl)pyrido[4,3-d]pyrimidin-2-yl)oxy)methyl)hexahydro-1H-pyrrolizin-3-yl)methyl 6-((4-(1-(2,6-dioxopiperidin-3-yl)-3-methyl-2-oxo-2,3-dihydro-1H-benzo[d]imidazol-5-yl)piperidin-1-yl)methyl)-2-azaspiro[3.3]heptane-2-carboxylate] | < 10 | < 100 | < 1 | – |
| CCc1c(F)ccc2cc(O)cc(-c3ncc4c(N5CCC[C@@](C)(O)C5)nc(OC[C@@]56CCCN5[C@H](COC(=O)N5CCC(CN7CCC(c8ccc9c(c8)n(C)c(=O)n9C8CCC(=O)NC8=O)CC7)C(F)(F)C5)CC6)nc4c3F)c12 (stereo partly drawn) [Compound 397, ((3S,7aS)-7a-(((7-(8-ethyl-7-fluoro-3-hydroxynaphthalen-1-yl)-8-fluoro-4-((R)-3-hydroxy-3-methylpiperidin-1-yl)pyrido[4,3-d]pyrimidin-2-yl)oxy)methyl)hexahydro-1H-pyrrolizin-3-yl)methyl 4-((4-(1-(2,6-dioxopiperidin-3-yl)-3-methyl-2-oxo-2,3-dihydro-1H-benzo[d]imidazol-5-yl)piperidin-1-yl)methyl)-3,3-difluoropiperidine-1-carboxylate] | < 10 | < 100 | < 1 | – |
| CCc1c(F)ccc2cc(O)cc(-c3ncc4c(N5CCC[C@@](C)(O)C5)nc(OC[C@@]56CCCN5[C@H](COC(=O)N5CCC(CN7CCC(c8ccc9c(c8)n(C)c(=O)n9C8CCC(=O)NC8=O)C(F)(F)C7)CC5)CC6)nc4c3F)c12 (stereo partly drawn) [Compound 398, ((3S,7aS)-7a-(((7-(8-ethyl-7-fluoro-3-hydroxynaphthalen-1-yl)-8-fluoro-4-((R)-3-hydroxy-3-methylpiperidin-1-yl)pyrido[4,3-d]pyrimidin-2-yl)oxy)methyl)hexahydro-1H-pyrrolizin-3-yl)methyl 4-((4-(1-(2,6-dioxopiperidin-3-yl)-3-methyl-2-oxo-2,3-dihydro-1H-benzo[d]imidazol-5-yl)-3,3-difluoropiperidin-1-yl)methyl)piperidine-1-carboxylate] | < 10 | < 100 | < 1 | – |
| CCc1c(F)ccc2cc(O)cc(-c3ncc4c(N5CCC[C@@](C)(O)C5)nc(OC[C@@]56CCCN5[C@H](COC(=O)N5CCC(C7(N8CCC(c9ccc%10c(c9)n(C)c(=O)n%10C9CCC(=O)NC9=O)CC8)CC7)CC5)CC6)nc4c3F)c12 (stereo partly drawn) [Compound 399, ((3S,7aS)-7a-(((7-(8-Ethyl-7-fluoro-3-hydroxynaphthalen-1-yl)-8-fluoro-4-((R)-3-hydroxy-3-methylpiperidin-1-yl)pyrido[4,3-d]pyrimidin-2-yl)oxy)methyl)hexahydro-1H-pyrrolizin-3-yl)methyl 4-(1-(4-(1-(2,6-dioxopiperidin-3-yl)-3-methyl-2-oxo-2,3-dihydro-1H-benzo[d]imidazol-5-yl)piperidin-1-yl)cyclopropyl) piperidine-1-carboxylate] | < 10 | < 100 | < 1 | – |
| CCc1c(F)ccc2cc(O)cc(-c3ncc4c(N5CCC[C@@](C)(O)C5)nc(OC[C@@]56CCCN5[C@H](CN5CCC(CN7CCC(c8ccc9c(c8)n(C)c(=O)n9C8CCC(=O)NC8=O)CC7)CC5)CC6)nc4c3F)c12 (stereo partly drawn) [Compound 402, 3-(5-(1-((1-(((35,7aS)-7a-(((7-(8-Ethyl-7-fluoro-3-hydroxynaphthalen-1-yl)-8-fluoro-4-((R)-3-hydroxy-3-methylpiperidin-1-yl)pyrido[4,3-d]pyrimidin-2-yl)oxy)methyl)hexahydro-1H-pyrrolizin-3-yl)methyl)piperidin-4-yl)methyl)piperidin-4-yl)-3-methyl-2-oxo-2,3-dihydro-1H-benzo[d]imidazol-1-yl) piperidine-2,6-dione] | 10 to 100 | < 100 | 1 to 10 | – |
| CCc1c(F)ccc2cc(O)cc(-c3ncc4c(N5CCC[C@@](C)(O)C5)nc(OC[C@@]56CCCN5[C@H](COC(=O)N5CCC(C#Cc7ccc8c(c7)n(C)c(=O)n8C7CCC(=O)NC7=O)CC5)CC6)nc4c3F)c12 (stereo partly drawn) [Compound 404, ((3S,7aS)-7a-(((7-(8-ethyl-7-fluoro-3-hydroxynaphthalen-1-yl)-8-fluoro-4-((R)-3-hydroxy-3-methylpiperidin-1-yl)pyrido[4,3-d]pyrimidin-2-yl)oxy)methyl)hexahydro-1H-pyrrolizin-3-yl)methyl 4-((1-(2,6-dioxopiperidin-3-yl)-3-methyl-2-oxo-2,3-dihydro-1H-benzo[d]imidazol-5-yl)ethynyl)piperidine-1-carboxylate] | < 10 | – | 1 to 10 | > 100 |
| C#Cc1cc(F)cc2cc(O)cc(-c3ncc4c(N5CCC[C@@](C)(O)C5)nc(OC[C@@]56CCCN5[C@H](COC(=O)N5CCC(CN7CCC(c8ccc9c(c8)n(C)c(=O)n9C8CCC(=O)NC8=O)CC7)CC5)CC6)nc4c3F)c12 (stereo partly drawn) [Compound 405, ((3S,7aS)-7a-(((7-(8-Ethynyl-6-fluoro-3-hydroxynaphthalen-1-yl)-8-fluoro-4-((R)-3-hydroxy-3-methylpiperidin-1-yl)pyrido[4,3-d]pyrimidin-2-yl)oxy)methyl)hexahydro-1H-pyrrolizin-3-yl)methyl 4-((4-(1-(2,6-dioxopiperidin-3-yl)-3-methyl-2-oxo-2,3-dihydro-1H-benzo[d]imidazole-5-yl)piperidin-1-yl)methyl) piperidine-1-carboxylate] | 10 to 100 | < 100 | 1 to 10 | – |

Source: US12599672B2, “KRAS proteolysis targeting chimeras” (PAQ Therapeutics Inc., priority 2023, dated 2026)
